Several values for one entry are separate records, joined by “and”; a condition that tells them apart may be missing. Equal values may be shown once. Where a SMILES comes first, the peptide text is derived from it. [ ]: non-standard residue; d: D form. Hyp = O=C(O)[C@@H]1C[C@@H](O)CN1
Assays:
CCL2/JE/MCP-1 = assay: Example 9 Luminex, LPS hPBMCs: CCL2/JE/MCP-1; assay type: cell-based, human
Description: (§1) Treatment Human PBMCs were pretreated with YY-101, YDE-011 and YDE-043 or reference compound; Xiidra® at various concentration (ranging from 1 nM to 100 uM) for 2 h before stimulation. An equal volume of 0.5% DMSO was used as a vehicle control. Then, the cells were treated with LPS at 5 ug/ml. The supernatants from treated cells were harvested at 24 h and placed in a 96 well for Luminex cytokine & chemokine profiling using a Luminex 200 multiplex assay (Luminex; R&D system, USA).
(§2) The main study arm with triplicate wells per group in a 24-well plate: • 1. Blank • 2. PBMC: 0.5% DMSO • 3. PBMC+LPS (5 ug/ml) • 4. PBMC+YY-101 100 uM • 5. PBMC+YY-101 10 uM • 6. PBMC+YY-101 1 uM • 7. PBMC+YY-101 0.1 uM • 8. PBMC+YY-101 0.01 uM • 9. PBMC+LPS (5 ug/ml)+Xiidra®100 uM • 10. PBMC+LPS (5 ug/ml)+Xiidra® 10 uM • 11. PBMC+LPS (5 ug/ml)+Xiidra® 1 uM • 12. PBMC+LPS (5 ug/ml)+Xiidra®0.1 uM • 13. PBMC+LPS (5 ug/ml)+Xiidra®0.01 uM • 14. PBMC+LPS (5 ug/ml)+Xiidra®0.001 uM • 15. PBMC+LPS (5 ug/ml)+YY-101 100 uM • 16. PBMC+LPS (5 ug/ml)+YY-101 10 uM • 17. PBMC+LPS (5 ug/ml)+YY-101 1 uM • 18. PBMC+LPS (5 ug/ml)+YY-101 0.1 uM • 19. PBMC+LPS (5 ug/ml)+YY-101 0.01 uM • 20. PBMC+LPS (5 ug/ml)+YY-101 0.001 uM • 21. PBMC+LPS (5 ug/ml)+YDE-011 100 uM • 22. PBMC+LPS (5 ug/ml)+YDE-011 10 uM • 23. PBMC+LPS (5 ug/ml)+YDE-011 1 uM • 24. PBMC+LPS (5 ug/ml)+YDE-011 0.1 uM • 25. PBMC+LPS (5 ug/ml)+YDE-011 0.01 uM • 26. PBMC+LPS (5 ug/ml)+YDE-011 0.001 uM • 27. PBMC+LPS (5 ug/ml)+YDE-043 100 uM • 28. PBMC+LPS (5 ug/ml)+YDE-043 10 uM • 29. PBMC+LPS (5 ug/ml)+YDE-043 1 uM • 30. PBMC+LPS (5 ug/ml)+YDE-043 0.1 uM • 31. PBMC+LPS (5 ug/ml)+YDE-043 0.01 uM • 32. PBMC+LPS (5 ug/ml)+YDE-043 0.001 uM
(§3) Multiplex assay was used to measure 30 cytokines and chemokines. The 1:2, 1:10 and 1:200 diluted cell supernatant and serial dilution of the standard were dispensed into a 96 well plate at 50 ul/well. Then, the pre-mixed cocktail of antibody-coated magnetic beads was dispensed at 50 ul/well and incubated at room temperature for 2 h in a horizontal orbital microplate shaker at 800±500 rpm. The beads were washed using a magnetic device to prevent loss. The biotin-antibody was dispensed in 50 ul of each well and incubated at room temperature for 1 h in a shaker at 800±500 rpm. After washing, streptavidin-PE was added at 50 ul/well and incubated at room temperature for 30 min in a shaker under the same conditions. Finally, after washing, wash buffer (100 ul/well) was added to the plate and incubated in a shaker for 2 min. The Luminex™ 200 setting were set according to the manufacturer's protocol. The data was calculated with a standard five-parameter logistic nonlinear regression analysis of the data (xPonent software 4.2, USA). The levels of cytokine/chemokine are normalized to the live cell counts (1×10^5 cells/mL) and presented as concentrations per mL (pg/mL or ng/mL).

TIMP-1 = assay: Example 9 Luminex, LPS hPBMCs: TIMP-1; assay type: cell-based, human; details: PBMC + LPS(5 ug/ml)
Description: as §1, §2, §3

[1] = PBMC + LPS(5 ug/ml) + test article 0.001 uM, Mean
[2] = PBMC + LPS(5 ug/ml) + test article 0.001 uM, individual replicates
[3] = PBMC + LPS(5 ug/ml) + test article 0.01 uM, Mean
[4] = PBMC + LPS(5 ug/ml) + test article 0.01 uM, individual replicates
[5] = PBMC + LPS(5 ug/ml) + test article 0.1 uM, Mean
[6] = PBMC + LPS(5 ug/ml) + test article 0.1 uM, individual replicates
[7] = PBMC + LPS(5 ug/ml) + test article 1 uM, Mean
[8] = PBMC + LPS(5 ug/ml) + test article 1 uM, individual replicates
[9] = PBMC + LPS(5 ug/ml) + test article 10 uM, Mean
[10] = PBMC + LPS(5 ug/ml) + test article 10 uM, individual replicates
[11] = PBMC + LPS(5 ug/ml) + test article 100 uM, Mean
[12] = PBMC + LPS(5 ug/ml) + test article 100 uM, individual replicates
[13] = test article 0.001 uM, single replicates
[14] = test article 0.01 uM, single replicates
[15] = test article 0.1 uM, single replicates
[16] = test article 1 uM, single replicates
[17] = test article 10 uM, single replicates
[18] = test article 100 uM, single replicates

## CC(C)C[C@H](NC(=O)CNC(=O)[C@H](CC(C)C)NC(=O)[C@H](CCC(N)=O)NC(=O)CNC(=O)[C@@H]1C[C@@H](O)CN1)C(=O)N[C@@H](C)C(=O)NCC(=O)N1CCC[C@H]1C(=O)N[C@@H](CCCCN)C(=O)O [YDE-011] (H-[Hyp]GQLGLAGPK-OH)
CCL2/JE/MCP-1; [1]
  Concentration: 1881.3 pg/mL
  conc/live cell: 355.2 pg/10^5
CCL2/JE/MCP-1; [2]
  Concentration: 1856.7 pg/mL and 1905.5 pg/mL and 1881.6 pg/mL
  conc/live cell: 412.6 pg/10^5 and 328.5 pg/10^5 and 324.4 pg/10^5
CCL2/JE/MCP-1; [3]
  Concentration: 1974.9 pg/mL
  conc/live cell: 339.7 pg/10^5
CCL2/JE/MCP-1; [4]
  Concentration: 1895.6 pg/mL and 2063.3 pg/mL and 1965.9 pg/mL
  conc/live cell: 300.9 pg/10^5 and 332.8 pg/10^5 and 385.5 pg/10^5
CCL2/JE/MCP-1; [5]
  Concentration: 1708.3 pg/mL
  conc/live cell: 300.6 pg/10^5
CCL2/JE/MCP-1; [6]
  Concentration: 1699.1 pg/mL and 1759.6 pg/mL and 1666.0 pg/mL
  conc/live cell: 257.4 pg/10^5 and 351.9 pg/10^5 and 292.3 pg/10^5
CCL2/JE/MCP-1; [7]
  Concentration: 1797.0 pg/mL
  conc/live cell: 358.5 pg/10^5
CCL2/JE/MCP-1; [8]
  Concentration: 1795.6 pg/mL and 1880.8 pg/mL and 1714.5 pg/mL
  conc/live cell: 326.5 pg/10^5 and 391.8 pg/10^5 and 357.2 pg/10^5
CCL2/JE/MCP-1; [9]
  Concentration: 1564.4 pg/mL
  conc/live cell: 297.3 pg/10^5
CCL2/JE/MCP-1; [10]
  Concentration: 1502.6 pg/mL and 1615.2 pg/mL and 1575.4 pg/mL
  conc/live cell: 278.3 pg/10^5 and 278.5 pg/10^5 and 335.2 pg/10^5
CCL2/JE/MCP-1; [11]
  Concentration: 281.9 pg/mL
  conc/live cell: 46.5 pg/10^5
CCL2/JE/MCP-1; [12]
  Concentration: 252.0 pg/mL and 301.1 pg/mL and 292.6 pg/mL
  conc/live cell: 41.3 pg/10^5 and 49.4 pg/10^5 and 48.8 pg/10^5
TIMP-1; test article 0.001 uM, Mean
  TIMP-1 Concentration: 1792.7 pg/mL
  TIMP-1 MFI: 946.7
  TIMP-1 conc/live cell: 339.5 pg/10^5
TIMP-1; [13]
  TIMP-1 Concentration: 1831.6 pg/mL and 1659.9 pg/mL and 1886.6 pg/mL
  TIMP-1 MFI: 974.0 and 852.5 and 1013.5
  TIMP-1 conc/live cell: 407.0 pg/10^5 and 286.2 pg/10^5 and 325.3 pg/10^5
TIMP-1; test article 0.01 uM, Mean
  TIMP-1 Concentration: 1879.9 pg/mL
  TIMP-1 MFI: 1009.2
  TIMP-1 conc/live cell: 325.5 pg/10^5
TIMP-1; [14]
  TIMP-1 Concentration: 1811.3 pg/mL and 2050.0 pg/mL and 1778.3 pg/mL
  TIMP-1 MFI: 959.5 and 1132.0 and 936.0
  TIMP-1 conc/live cell: 292.1 pg/10^5 and 402.0 pg/10^5 and 282.3 pg/10^5
TIMP-1; test article 0.1 uM, Mean
  TIMP-1 Concentration: 1831.1 pg/mL
  TIMP-1 MFI: 974.2
  TIMP-1 conc/live cell: 320.0 pg/10^5
TIMP-1; [15]
  TIMP-1 Concentration: 1879.7 pg/mL and 1677.8 pg/mL and 1935.9 pg/mL
  TIMP-1 MFI: 1008.5 and 865.0 and 1049.0
  TIMP-1 conc/live cell: 284.8 pg/10^5 and 335.6 pg/10^5 and 339.6 pg/10^5
TIMP-1; test article 1 uM, Mean
  TIMP-1 Concentration: 1791.4 pg/mL
  TIMP-1 MFI: 945.5
  TIMP-1 conc/live cell: 356.7 pg/10^5
TIMP-1; [16]
  TIMP-1 Concentration: 1869.9 pg/mL and 1750.8 pg/mL and 1753.6 pg/mL
  TIMP-1 MFI: 1001.5 and 916.5 and 918.5
  TIMP-1 conc/live cell: 340.0 pg/10^5 and 364.7 pg/10^5 and 365.3 pg/10^5
TIMP-1; test article 10 uM, Mean
  TIMP-1 Concentration: 1768.2 pg/mL
  TIMP-1 MFI: 929.0
  TIMP-1 conc/live cell: 335.3 pg/10^5
TIMP-1; [17]
  TIMP-1 Concentration: 1820.4 pg/mL and 1794.4 pg/mL and 1689.9 pg/mL
  TIMP-1 MFI: 966.0 and 947.5 and 873.5
  TIMP-1 conc/live cell: 337.1 pg/10^5 and 309.4 pg/10^5 and 359.5 pg/10^5
TIMP-1; test article 100 uM, Mean
  TIMP-1 Concentration: 2184.4 pg/mL
  TIMP-1 MFI: 1231.0
  TIMP-1 conc/live cell: 360.0 pg/10^5
TIMP-1; [18]
  TIMP-1 Concentration: 2326.8 pg/mL and 2121.7 pg/mL and 2104.6 pg/mL
  TIMP-1 MFI: 1336.5 and 1184.5 and 1172.0
  TIMP-1 conc/live cell: 381.4 pg/10^5 and 347.8 pg/10^5 and 350.8 pg/10^5

Source: patent US20230146455A1, “TREATMENT OF INFLAMMATORY DISEASES WITH PEPTIDES AND PHARMACEUTICAL COMPOSITIONS” (Yuyu Pharma, Inc., priority 2020, published 2023)
